The results in this text go back to patent US9119853B2, “Sanglifehrin based compounds” (priority 2010, dated 2015).

SMILES strings stand for the structures. pEC50, pIC50: −log10 of the molar value. Values after ≈ are worked out from the molar mass of the structure shown. Where two headings read alike, the source gives them in different places. Where only a bound is given, the exact number is not on record here.

Data set [1] concerns HCV genotype 1b I389luc-ubi-neo/NS3-3'/5.1 replicon in Huh5.2 cells. Nature of the data set: microbe, parasite or virus in culture. It is filed as cell-based, Hepatitis C Virus.
Data set [2] is described as follows: Anti-metabolic effect (MTS) in the replicon cell line. The note with it: human.
The nature of data set [3]: Solubility in PBS pH 7.4. The settings on record: for solubility compared to sanglifehrin A (5) and cyclosporine A (1) (in words): PBS pH 7.4; for solubility at 4 h: PBS, pH 7.4, aqueous buffer, kinetic from dmso stock.
The conditions of data set [4]: pH 7.4.
The target in data set [5] is T1, GST-CypD / Con1 NS5A-His complex (Homo sapiens, UniProt P30405). Nature of the data set: ELISA analysis of Cyp-NS5A interaction (CypD-NS5A disruption).
T1 sequence (P30405 30-207, one chain of several): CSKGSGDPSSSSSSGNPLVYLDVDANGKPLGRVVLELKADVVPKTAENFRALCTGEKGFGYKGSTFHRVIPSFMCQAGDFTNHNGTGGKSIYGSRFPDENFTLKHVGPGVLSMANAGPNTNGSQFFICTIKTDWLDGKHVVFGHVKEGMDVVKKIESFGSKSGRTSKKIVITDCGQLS
For data set [6], the system named is HIV (pNL4.3-GFP / pNL4.3-BaL-GFP) in CD4+ HeLa cells. Nature of the data set: microbe, parasite or virus in culture. It counts as cell-based.
The subject of data set [7] is HIV (pNL4.3-GFP / pNL4.3-BaL-GFP) in CD4+ T-lymphocytes. Nature of the data set: microbe, parasite or virus in culture. It is filed as cell-based. The settings on record: Human immunodeficiency virus 1, BAL, T-lymphocyte, 48 h, read-out: CD4+ T-lymphocytes EC50.
In data set [8] the test system is HIV (pNL4.3-GFP / pNL4.3-BaL-GFP) in Jurkat cells. Nature of the data set: microbe, parasite or virus in culture. It counts as cell-based. The note with it: Human immunodeficiency virus 1, BAL, 48 h, read-out: T cells EC50.
Data set [9] concerns HIV (pNL4.3-GFP / pNL4.3-BaL-GFP) in macrophages. Nature of the data set: microbe, parasite or virus in culture. The settings on record: Human immunodeficiency virus 1, BAL, Macrophage, 48 h, read-out: Macrophages EC50. It is filed as cell-based.
Data set [10] deals with T1, GST-CypD / Con1 NS5A-His complex. Nature of the data set: biochemical.
For data set [11], the system named is peripheral blood mononuclear cells (PBMC). Nature of the data set: Mixed lymphocyte reaction (MLR) for immunosuppressant activity. It counts as cell-based, human.
Data set [12] is described as follows: physchem. The note with it: pH 7.4, aqueous buffer, kinetic from dmso stock.
Data set [13] has as its system Huh5.2 cells. Nature of the data set: Anti-metabolic effect (MTS) in the replicon cell line. The settings on record: Huh5.2 cells, MTS, 72 hours.
Setting [14] is: Hepatitis C virus, Huh-5-2, 72 h.

With `CC(=O)CC[C@H]1C(=O)N[C@@H](C(C)C)C(=O)N[C@@H](Cc2cccc(O)c2)C(=O)N2CCCC(N2)C(=O)O[C@H](/C(C)=C/C=C/C(=O)NC(C)C)C/C=C/C=C/[C@H](O)[C@H](C)[C@H]1O` (some centres unmarked) [compound 16], in data set [1], the “Selectivity index (CC50/EC50)” value is >179 and the “potency in the Huh5.2 replicon assay (in words)” value is on record as “very potent”. In data set [1] (setting [14]), this compound showed a pEC50 of 6.25 and an EC90 of 4.6 µM. Moreover, the CC50 at 72 h in data set [2] was > 100 µM.

As for `C/C=C/C[C@H]1C(=O)N[C@@H](C(C)C)C(=O)N[C@@H](Cc2cccc(O)c2)C(=O)N2CCCC(N2)C(=O)O[C@H](/C(C)=C/C=C/C(=O)N(C)OC)C/C=C/C=C/[C@H](O)[C@H](C)[C@H]1O` (some centres unmarked) [compound 28], in data set [1], the “Selectivity index (CC50/EC50)” value was determined as 28.2 and the “potency in the Huh5.2 replicon assay (in words)” value is recorded as “very potent”. In addition, in [1] (setting [14]), the pEC50 is 6.20 and the EC90 was found to be 4 µM. Moreover, the half-maximal cytotoxic concentration (CC50) at 72 h in data set [2] is 17.7 µM. In data set [3], the “solubility compared to sanglifehrin A (5) and cyclosporine A (1) (in words)” value was “increased solubility”; the solubility at 4 h is 78 µM (≈ 63 µg/mL).

As for `CC(=O)CC[C@H]1C(=O)N[C@@H](C(C)C)C(=O)N[C@@H](Cc2cccc(O)c2)C(=O)N2CCCC(N2)C(=O)O[C@H](/C(C)=C/C=C/C(=O)Nc2ccc(-c3ccccc3)cc2)C/C=C/C=C/[C@H](O)[C@H](C)[C@H]1O` (some centres unmarked) [compound 41], in data set [1], the “Selectivity index (CC50/EC50)” value was >481 and the “potency in the Huh5.2 replicon assay (in words)” value was “very potent”. For the same compound, in data set [1] (setting [14]), the pEC50 is 6.68 and the EC90 worked out at 1.1 µM. Moreover, in data set [2], the CC50 at 72 h was > 100 µM.

On to `CCN(CC)C(=O)/C=C/C=C(\C)[C@@H]1C/C=C/C=C/[C@H](O)[C@H](C)[C@@H](O)[C@@H](CCC(C)=O)C(=O)N[C@@H](C(C)C)C(=O)N[C@@H](Cc2cccc(O)c2)C(=O)N2CCCC(N2)C(=O)O1` (some centres unmarked) [compound 13], for which, in [1], the “Selectivity index (CC50/EC50)” value is >490 and the “potency in the Huh5.2 replicon assay (in words)” value is “very potent”. Moreover, in [1] (setting [14]), the pEC50 is 6.69 and it took 1.2 µM to reach the 90% level (EC90). The CC50 at 72 h in [2] was > 100 µM. Further, in data set [3], the “solubility compared to sanglifehrin A (5) and cyclosporine A (1) (in words)” value is recorded as “increased solubility”; the solubility at 4 h was > 100 µM.

On to `CC(=O)CC[C@H]1C(=O)N[C@@H](C(C)C)C(=O)N[C@@H](Cc2cccc(O)c2)C(=O)N2CCCC(N2)C(=O)O[C@H](/C(C)=C/C=C/C(=O)N(C)C)C/C=C/C=C/[C@H](O)[C@H](C)[C@H]1O` (some centres unmarked) [compound 22], for which, in data set [1], the “Selectivity index (CC50/EC50)” value is reported as >287 and the “potency in the Huh5.2 replicon assay (in words)” value is given as “very potent”. In data set [1] (setting [14]), this compound showed a pEC50 of 6.46 and an EC90 of 6.2 µM. Further, the CC50 at 72 h in [2] is > 100 µM. In data set [3], the “solubility compared to sanglifehrin A (5) and cyclosporine A (1) (in words)” value is “increased solubility”; the solubility at 4 h is > 100 µM.

For the compound `CC(=O)CC[C@H]1C(=O)N[C@@H](C(C)C)C(=O)N[C@@H](Cc2cccc(O)c2)C(=O)N2CCCC(N2)C(=O)O[C@H](/C(C)=C/C=C/C(=O)N(CC(C)C)CC(C)C)C/C=C/C=C/[C@H](O)[C@H](C)[C@H]1O` (some centres unmarked) [compound 32], the “potency in the Huh5.2 replicon assay (in words)” value in data set [1] is given as “very potent”. In [1] (setting [14]), this compound showed a pEC50 of 6.51 and an EC90 of 1.1 µM. Also, the Solubility in [4] worked out at 33 µM (≈ 29.4 µg/mL). In addition, in [2], the CC50 at 72 h stood at 2.1 µM.

Turning to `CC(=O)CC[C@H]1C(=O)N[C@@H](C(C)C)C(=O)N[C@@H](Cc2cccc(O)c2)C(=O)N2CCCC(N2)C(=O)O[C@H](/C(C)=C/C=C/C(=O)N(C)C2CCCCC2)C/C=C/C=C/[C@H](O)[C@H](C)[C@H]1O` (some centres unmarked) [compound 45], in data set [1], the “Selectivity index (CC50/EC50)” value is given as 449 and the “potency in the Huh5.2 replicon assay (in words)” value is on record as “very potent”. Also, in data set [1] (setting [14]), the pEC50 is 6.83 and it took 1.9 µM to reach the 90% level (EC90). Further, the CC50 at 72 h in data set [2] came to 66.4 µM.

With `CNC(=O)/C=C/C=C(\C)[C@@H]1C/C=C/C=C/[C@H](O)[C@H](C)[C@@H](O)[C@@H](CCC(C)=O)C(=O)N[C@@H](C(C)C)C(=O)N[C@@H](Cc2cccc(O)c2)C(=O)N2CCCC(N2)C(=O)O1` (some centres unmarked) [compound 19], the “Selectivity index (CC50/EC50)” value in data set [1] is on record as >80. Further, in [1] (setting [14]), the pEC50 is 5.10 and it took 60.2 µM to reach the 90% level (EC90). Moreover, the CC50 at 72 h in data set [2] is > 100 µM. Further, in data set [3], the “solubility compared to sanglifehrin A (5) and cyclosporine A (1) (in words)” value is recorded as “increased solubility”; the solubility at 4 h was > 100 µM.

As for `CC(=O)CC[C@H]1C(=O)N[C@@H](C(C)C)C(=O)N[C@@H](Cc2cccc(O)c2)C(=O)N2CCCC(N2)C(=O)O[C@H](/C(C)=C/C=C/C(=O)N2CCCCO2)C/C=C/C=C/[C@H](O)[C@H](C)[C@H]1O` (some centres unmarked) [compound 55], the “disruption of the CypD-NS5A complex (in words)” value in [5] is reported as “potent disruption”. Also, the “Selectivity index (CC50/EC50)” value in data set [1] was >800. Further, the “potency in the Huh5.2 replicon assay (in words)” value in data set [1] was “very potent”. In addition, the pEC50 in data set [1] (setting [14]) was 6.90; in data set [6] (Human immunodeficiency virus 1, BAL, HeLa, 48 h, read-out: HeLa cells EC50) it was 6.51; in [7], 6.82; in [8], 6.66; in data set [9], 6.64. For the same compound, the 90% effect level in data set [1] (setting [14]) (EC90) was put at 0.691 µM. In [6] (four cell types), the “potency at inhibiting HIV infection compared to cyclosporine A, 1 (in words)” value is given as “significantly more potent”. Moreover, the pIC50 in [10] was 6.64; in [11] (Homo sapiens, PBMC, read-out: Human MLR IC50) it was 5.84. Moreover, the CC50 at 72 h in data set [2] is > 100 µM. In data set [11] (MLR), the “immunosuppressive activity (in words)” value was “very low levels of immunosuppressive activity”. Further, the Solubility in data set [12] is > 100 µM.

Consider `CC(=O)CC[C@H]1C(=O)N[C@@H](C(C)C)C(=O)N[C@@H](Cc2cccc(O)c2)C(=O)N2CCCC(N2)C(=O)O[C@H](/C(C)=C/C=C/C(=O)NC2CCCCC2)C/C=C/C=C/[C@H](O)[C@H](C)[C@H]1O` (some centres unmarked) [compound 51], for which, in [1], the “Selectivity index (CC50/EC50)” value was >298 and the “potency in the Huh5.2 replicon assay (in words)” value is reported as “very potent”. In data set [1] (setting [14]), this compound had a pEC50 of 6.47 and an EC90 of 4.2 µM. Besides, the CC50 at 72 h in data set [2] is > 100 µM.

In [1] (setting [14]), `C=CCNC(=O)/C=C/C=C(\C)[C@@H]1C/C=C/C=C/[C@H](O)[C@H](C)[C@@H](O)[C@@H](CCC(C)=O)C(=O)N[C@@H](C(C)C)C(=O)N[C@@H](Cc2cccc(O)c2)C(=O)N2CCCC(N2)C(=O)O1` (some centres unmarked) [compound 25] had a pEC50 of 5.80 and an EC90 of 8.5 µM. The Solubility in data set [4] came to 96 µM (≈ 78.7 µg/mL). Besides, the midpoint of cytotoxicity in data set [2], the CC50 at 72 h, lay at 48.4 µM. Further, the “solubility compared to sanglifehrin A (5) and cyclosporine A (1) (in words)” value in data set [3] is listed as “increased solubility”.

For the compound `CC(=O)CC[C@H]1C(=O)N[C@@H](C(C)C)C(=O)N[C@@H](Cc2cccc(O)c2)C(=O)N2CCC[C@H](N2)C(=O)O[C@H](/C(C)=C/CO)C/C=C/C=C/[C@H](O)[C@H](C)[C@H]1O` [hydroxymacrocycle, 6, reference compound], in data set [1], the “potency in the Huh5.2 replicon assay (in words)” value was “less potent”. In [1] (read-out: EC50), the pEC50 is 5.08. Also, the EC90 in data set [1] (read-out: EC90) is 39.7 µM. In data set [13], this compound displayed a CC50 of 83.6 µM.

Turning to `CON(C)C(=O)/C=C/C=C(\C)[C@@H]1C/C=C/C=C/[C@H](O)[C@H](C)[C@@H](O)[C@@H](CCC(C)=O)C(=O)N[C@@H](C(C)C)C(=O)N[C@@H](Cc2cccc(O)c2)C(=O)N2CCCC(N2)C(=O)O1` (some centres unmarked) [compound 10], in data set [1], the “Selectivity index (CC50/EC50)” value is recorded as >617 and the “potency in the Huh5.2 replicon assay (in words)” value is listed as “very potent”. In [1] (setting [14]), this compound gave a pEC50 of 6.79 and an EC90 of 0.921 µM. Moreover, the CC50 at 72 h in data set [2] was > 100 µM. Also, in data set [3], the “solubility compared to sanglifehrin A (5) and cyclosporine A (1) (in words)” value is on record as “increased solubility”; the solubility at 4 h was > 100 µM.
